# Paper PMC10202811 (Nature Medicine, 2023)
# Values joined by “and” are separate entries in the source; they are usually repeats but may differ in a detail not shown here. Identical values can stand only once. “Also recorded” adds a separate entry of the source.
# What was measured:
# [1] = Real-time neurobehavioral monitoring of CNS effects; type: in vivo, human
# Text: The Adaptive Behavior Assessment System 3rd edition (ABAS-3; Harrison & Oakland, 2015) parent-report and self-report forms were used for the assessment of adaptive skills for individuals across all ages. Internal consistency has been reported to be 0.96 or greater for the composite adaptive behavior scale and between 0.86 and 0.99 for the subscales. Construct, convergent and discriminant validity have also been established for this measure.
# The Behavior Assessment System for Children 3rd edition (BASC-3; Reynolds & Kamphaus, 2015) is a questionnaire assessing behavioral, emotional and adaptive functioning across settings. For purposes of this study, the Parent Rating Scales (PRS) were administered for patients ages 2–5 years (Preschool form, PRS-P), 6–11 years (Child form, PRS-C) and 12–17 years (Adolescent form, PRS-A). The Self-Report of Personality (SRP) College Form was administered for adult patients ages 18–25 years. The reliability of the BASC-3 is strong, with internal consistency averaging above 0.80 for all the age-specific versions of this questionnaire, and average test–retest reliability is 0.86.
# The Behavior Rating Inventory of Executive Function (BRIEF; Gioia et al. 2000) is a questionnaire designed to assess behavioral manifestations of executive functioning and includes multiple versions. Parents of participants aged 2–5 years completed the 63-item preschool version (BRIEF-P). Parents of participants aged 6–17 years completed the BRIEF parent form, which consists of 86 individual items from which eight clinical scales, two indices and one composite score are derived. Patients who were ≥18 years of age completed a 75-item self-report adult version (BRIEF-A). Scores are standardized by age and gender, and high internal consistency (0.73–0.98) and test–retest reliability (0.76–0.90) were observed. Construct, content, convergent and discriminant validity have been established.
# CogState Research Battery (version 7; Sands et al. 2017; Heitzer et al. 2018) is a flexible battery of computer-based tests developed to monitor domains of cognition typically affected by cancer treatment, such as attention, memory, executive function and processing speed. Three different versions were used, one for children 3–5 years of age, one for children 6–9 years of age and one for patients 10 years of age and older. Age-standardized z-scores were derived based on the CogState normative dataset finalized in September 2014 for adults and in February 2016 for pediatrics, with construct validity, criterion validity, cultural equivalence and limited practice effects established.
# Only measures with established language translations were used. If measures were not available in a patient’s primary language, neurobehavioral toxicity assessment was based on the treating physician’s clinical determination using CTCAE version 4.0 grading criteria. All measures were individually administered by trained, qualified site personnel. Standardized scores were obtained for each instrument administered by comparing raw scores to normative samples provided by the test publishers. All evaluation results were reviewed, analyzed and interpreted centrally in real time by a pediatric neuropsychologist. Determination of clinically meaningful change in functioning (that is, significant decline) relative to baseline or previous screening exam was made at each retest interval. This was calculated using reliable change indices (RCIs) for individual tests or scales, which account for standard errors of measurement, to determine whether a statistically significant change in scores occurred between two timepoints. Meaningful change in performance was considered to occur when clinically significant decline (using 90% CI) was present in 50% of select administered measures. […]
# [2] = test system: ALK-driven refractory or relapsed neuroblastoma; assay: Soft tissue response by RECIST; type: in vivo, human
# Text: Patients underwent disease staging at baseline, after courses 2 and 4 and then every four courses thereafter. The primary endpoint for response analysis is the BOR, defined as the best response observed before progression or start of another therapy. […] Response was graded according to the NANT response criteria version 2.0 (ref. [26]), modified from the International Neuroblastoma Response Criteria (INRC)[48]. NANT response criteria use three components for assessment of overall response: soft tissue response assessed by anatomical imaging and avidity on MIBG or FDG-PET; bone response assessed by uptake in bone by MIBG or bone involvement on FDG-PET; and bone marrow response assessed by morphology on bilateral aspirates and biopsies. Each response component (soft tissue, bone and bone marrow) are graded as CR, PR, SD and PD. Overall response grading is defined as: CR, if a response of CR in all components that are involved at baseline; PR, if a response of PR or better in all involved components; MR, if a response of PR or better but with at least one involved component as SD and no PD in all involved components; SD, if a response of SD in all involved components; and PD, if a response of PD in at least one involved component. The overall response definitions are identical to overall responses (CR, PR, SD and PD) as defined by the INRC. Response assessment is initially performed by sites and reviewed against source documents by NANT operations. Additional blinded central review of all radiological or pathological data was conducted for patients with overall PR or better and, in addition, radiologic pathological data of all involved sites for patients with MR to assign the final BOR on this study. Response by MIBG was determined using the Curie criteria. RR was determined as the proportion of patients with BOR of CR and PR in each cohort. […]
# [3] = test system: neuroblastoma-derived xenografts harboring F1174L, F1245C or R1275Q ALK mutations; details: cited from earlier work
# [4] = A1 (< 18 yrs), DL 5 (115 mg/m^2)
# [5] = B2 (< 18yrs), DL 5 (115 mg/m^2)
# [6] = patient with CNS DLT, A2 (≥ 18 yrs), 100 mg
# [7] = patient with CNS DLT, B2 (< 18yrs), DL 5 (115 mg/m^2)
# [8] = patients with CNS DLT, A2 (≥ 18 yrs), 150 mg
smiles,measurement,setting,value
"C[C@H]1Oc2cc(cnc2N)-c2c(nn(C)c2C#N)CN(C)C(=O)c2ccc(F)cc21 [Lorlatinib, (10R)-7-amino-12-fluoro-2,10,16-trimethyl-15-oxo-10,15,16,17-tetrahydro-2H-8,4-(metheno)pyrazolo[4,3-h][2,5,11]-benzoxadiazacyclotetradecine-3-carbonitrile]","DLT Corresponding Neuropsych Symptoms, Cognitive",[1]; [4],Stable
same,"DLT Corresponding Neuropsych Symptoms, Psychosocial",[1]; [4],Adaptive Skills Depression
same,"DLT Corresponding Neuropsych Symptoms, Cognitive","[1]; A2 (≥ 18 yrs), 100 mg",Speed/Efficiency Working Memory Immediate Recall
same,"DLT Corresponding Neuropsych Symptoms, Psychosocial","[1]; A2 (≥ 18 yrs), 100 mg",Adaptive Skills Attention Working Memory
same,"DLT Corresponding Neuropsych Symptoms, Cognitive","[1]; A2 (≥ 18 yrs), 150 mg",Stable
same,"DLT Corresponding Neuropsych Symptoms, Psychosocial","[1]; A2 (≥ 18 yrs), 150 mg",Anxiety Depression Emotional Lability Atypicality^c; also recorded: Adaptive Skills Depression Emotional Lability Working Memory
same,"DLT Corresponding Neuropsych Symptoms, Cognitive",[1]; [5],Speed/ Efficiency Working Memory
same,"DLT Corresponding Neuropsych Symptoms, Psychosocial",[1]; [5],Adaptive Skills Anxiety
same,"Pre-Cycle Neuropsych Symptoms, Psychosocial","[1]; patient with CNS DLT, A1 (< 18 yrs), DL 5 (115 mg/m^2)",Atypicality Adaptive Skills
same,"Pre-Cycle Neuropsych Symptoms, Cognitive","[1]; patient with CNS DLT, A1 (< 18 yrs), DL 5 (115 mg/m^2), decline from baseline",Stable
same,"Pre-Cycle Neuropsych Symptoms, Cognitive",[1]; [6],Speed/ Efficiency Working Memory
same,"Pre-Cycle Neuropsych Symptoms, Psychosocial",[1]; [6],Adaptive Skills Attention
same,"Pre-Cycle Neuropsych Symptoms, Cognitive",[1]; [7],Speed/ Efficiency
same,"Pre-Cycle Neuropsych Symptoms, Psychosocial",[1]; [7],Atypicality Anxiety
same,"Pre-Cycle Neuropsych Symptoms, Cognitive",[1]; [8],Stable; also recorded: Visual Memory
same,"Pre-Cycle Neuropsych Symptoms, Psychosocial",[1]; [8],Adaptive Skills Anxiety Emotional Lability Working Memory Atypicality; also recorded: Depression Emotional Lability Working Memory
same,Soft tissue % change from baseline,"[2]; Cohort A1, individual patient",1% and -3.77% and -4% and -7% and -17% and -21% and -29% and -36% and -41% and -50% and -63% and -70% and -100% and 200% and 121% and 100% and 61% and 20% and 6%
same,Soft tissue % change from baseline,"[2]; Cohort A2, individual patient",1% and -11% and -23% and -27% and -28% and -30% and -41% and -68%
same,Soft tissue % change from baseline,"[2]; Cohort B2, individual patient",1% and -9% and -12% and -45%
same,anti-tumor doses lower than crizotinib,[3]; ALK-driven neuroblastoma pre-clinical models in vivo,10–30 fold
same,effect on xenograft tumors,[3]; crizotinib-resistant and sensitive xenografts,complete tumor regression
